Tested on: MIF
Experiment: RBCs or RBC ghosts cultured in plasma with heparin or EDTA, MIF ELISA (Example 1)
Format: cell-based, human
Conditions: addition of EDTA to the cell suspensions, compared with heparin treatment; FIG. 2
Protocol: To determine if the presence of anticoagulants alter the capacity for protein binding to red blood cells, these cells were incubated in plasma with or without heparin or EDTA. Whole blood from healthy volunteers was collected into EDTA vacutainers (3 mg/mL). Plasma was collected from blood collected into hepain and citrate vacutainers. […] The ghosts were then isolated by centrifugation (16,000 g, 20 minutes) and were resuspended in PBS. […] The red blood cells or ghosts were then cultured for 0, 1, or 18 hours at 37° C. As controls, EDTA plasma containing heparin or EDTA were culture under the same conditions. Following incubation, the cell free supernatants was collected and stored at −80° C. Prior to analysis, samples were subjected to ×3 freeze-thaw cycles. MIF concentration of the samples was quantified using a MIF ELISA.

With `O=C(O)CN(CCN(CC(=O)O)CC(=O)O)CC(=O)O` [EDTA, ethylenediaminetetraacetic acid] the “MIF in the RBC lysates and ghosts 'lysates'” value was “substantially less”.

Reference: patent US11564948B2, “Therapeutic methods using erythrocytes” (Sangui Bio Pty Ltd, priority 2015, dated 2023)
